Measured values as given in PMC11435205, “TnP and AHR-CYP1A1 Signaling Crosstalk in an Injury-Induced Zebrafish Inflammation Model” (Pharmaceuticals, 2024).

Experiments:
CYP1 = conditions: cited from earlier work
CYP1A1 = target: T1, CYP1A1 (Homo sapiens, UniProt P04798); experiment: in vitro; conditions: pH 7.4, CYP1A1 enzyme activity (%), MNF 2.5 µM, positive control
T1 sequence (P04798 1-512): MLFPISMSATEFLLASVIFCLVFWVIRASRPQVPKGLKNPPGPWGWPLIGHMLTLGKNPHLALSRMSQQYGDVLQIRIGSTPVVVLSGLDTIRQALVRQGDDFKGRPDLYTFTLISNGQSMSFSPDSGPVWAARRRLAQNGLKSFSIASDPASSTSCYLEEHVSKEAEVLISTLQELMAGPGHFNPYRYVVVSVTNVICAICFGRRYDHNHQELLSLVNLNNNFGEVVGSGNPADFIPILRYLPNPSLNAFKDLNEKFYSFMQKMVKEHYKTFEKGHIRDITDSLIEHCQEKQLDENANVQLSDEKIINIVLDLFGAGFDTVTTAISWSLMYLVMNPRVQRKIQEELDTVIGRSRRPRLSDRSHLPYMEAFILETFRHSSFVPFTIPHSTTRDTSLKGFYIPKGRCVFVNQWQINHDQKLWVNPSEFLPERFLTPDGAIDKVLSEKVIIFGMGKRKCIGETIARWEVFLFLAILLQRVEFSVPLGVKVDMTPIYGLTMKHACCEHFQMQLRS
Description: The ethoxyresorufin deethylase (EROD) assay was performed using recombinant human CYP1A1 to determine TnP-mediated inhibition of CYP1A1 enzyme activity according to Wincent et al. [47], with minor changes. In brief, 2.5 nM CYP1A1 was pre-incubated with different concentrations of TnP in Tris-HCl buffer (0.1 M, pH 7.4) with EDTA (1 mM) at 37 °C for 3 min followed by the addition of ethoxyresorufin (0.1 μM) and NADPH (0.4 mM). Formation of resorufin was quantified in triplicates using a Tecan Infinite F200 multiwell plate reader (Tecan Group Ltd., Männedorf, Switzerland) with the excitation/emission wavelengths of 530/590 nm every 4 s for 2 min. The enzyme activity was determined by comparing the rate of resorufin formation compared to the vehicle control DMSO. The TnP concentration causing 50% inhibition of EROD activity (IC50) was estimated by nonlinear dose–response inhibition analysis using GraphPad Prism 9.1 (GraphPad Software, San Diego, CA, USA).
All the concentration were read at least in triplicate. Dimethyl sulfoxide – DMSO was tested
as negative control, and 3’-methoxy-4’-nitroflavone – MNF as positive control.

[1] = test system: (DOX)-induced cardiotoxicity; conditions: zebrafish; cited from earlier work
Excerpt: In addition to its implication in the resolution of inflammation and tissue injury, Asnani et al. recently concluded that inhibition of CYP1 was protective of (DOX)-induced cardiotoxicity.

O=Cc1c2c(cc3c1=Nc1ccccc1-3)=Nc1ccccc1-2 [FICZ]
clearance dependence (CYP1): clearance is dependent on CYP1

COc1cc(-c2cc(=O)c3ccccc3o2)ccc1[N+](=O)[O-] [MNF]
activity (CYP1A1; replicate I): 1.54% | activity (CYP1A1; replicate II): 1.54% | activity (CYP1A1; replicate III): 1.71% | activity (CYP1A1; replicate IV): 1.67% | activity (CYP1A1; replicate IX): 0.51% | activity (CYP1A1; replicate V): 1.31% | activity (CYP1A1; replicate VI): 1.7% | activity (CYP1A1; replicate VII): 0.51% | activity (CYP1A1; replicate VIII): 0.51%

COc1c2ccoc2cc2oc(C)cc(=O)c12 [visnagin]
effect on DOX-induced cardiotoxicity [1]: cardioprotection
